What follows are compounds tested on HCT116 colorectal cancer cells (assay: Cisplatin sensitization assay (96 h cell viability MTS)). Settings: 96 h MTS, compound plus Cisplatin.
Assay type: cell-based
Method in brief: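 Viability is measured with MTS reagent, added after 96 h and developed for 1 h at 37° C. Beforehand, cells receive compound and cisplatin simultaneously in a concentration matrix of 2-fold serial dilutions starting at 10 μM final.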
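Note: compound concentration needed to lower the Cisplatin-alone IC50 by a set fold.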

| Structure (SMILES) | Cisplatin Sensitization Assay |
| --- | --- |
| CN1CCOCC1C(=O)N1CCN(c2c(F)cncc2NC(=O)c2c(N)nn3cc(F)cnc23)CC1 (centres unmarked) [I-N-227, 2-amino-6-fluoro-N-(5-fluoro-4-(4-(4-methylmorpholine-3-carbonyl)piperazin-1-yl)pyridin-3-yl)pyrazolo[1,5-a]pyrimidine-3-carboxamide] | +++ (Compounds with a Cisplatin sensitization value of <0.02 μM are marked with “+++.”) |
| Nc1nn2cc(F)cnc2c1C(=O)Nc1cncc(F)c1N1CCN(CC(=O)N2CCC2)CC1 [I-N-228, 2-amino-N-(4-(4-(2-(azetidin-1-yl)-2-oxoethyl)piperazin-1-yl)-5-fluoropyridin-3-yl)-6-fluoropyrazolo[1,5-a]pyrimidine-3-carboxamide] | +++ (Compounds with a Cisplatin sensitization value of <0.02 μM are marked with “+++.”) |
| CN1CC2(CCN(c3c(F)cncc3NC(=O)c3c(N)nn4cc(F)cnc34)CC2)OC1=O [I-N-229, 2-amino-6-fluoro-N-(5-fluoro-4-(3-methyl-2-oxo-1-oxa-3,8-diazaspiro[4.5]decan-8-yl)pyridin-3-yl)pyrazolo[1,5-a]pyrimidine-3-carboxamide] | +++ (Compounds with a Cisplatin sensitization value of <0.02 μM are marked with “+++.”) |
| Nc1nn2cc(F)cnc2c1C(=O)Nc1cnccc1N1CCC(N2CCCC2=O)CC1 [I-N-230, 2-amino-6-fluoro-N-(4-(4-(2-oxopyrrolidin-1-yl)piperidin-1-yl)pyridin-3-yl)pyrazolo[1,5-a]pyrimidine-3-carboxamide] | +++ (Compounds with a Cisplatin sensitization value of <0.02 μM are marked with “+++.”) |
| CN1CC2(CCC1=O)CCN(c1ccncc1NC(=O)c1c(N)nn3cc(F)cnc13)CC2 [I-N-231, 2-amino-6-fluoro-N-(4-(2-methyl-3-oxo-2,9-diazaspiro[5.5]undecan-9-yl)pyridin-3-yl)pyrazolo[1,5-a]pyrimidine-3-carboxamide] | +++ (Compounds with a Cisplatin sensitization value of <0.02 μM are marked with “+++.”) |
| Nc1nn2cc(F)cnc2c1C(=O)Nc1cncc(F)c1N1CC(=O)N2CCCC2C1 (centres unmarked) [I-N-232, 2-amino-6-fluoro-N-(5-fluoro-4-(4-oxohexahydropyrrolo[1,2-a]pyrazin-2(1H)-yl)pyridin-3-yl)pyrazolo[1,5-a]pyrimidine-3-carboxamide] | ++ (Compounds with a Cisplatin sensitization value >0.02 μM but <0.2 μM are marked with “++.”) |
| CN1CCN2CCN(c3ccncc3NC(=O)c3c(N)nn4cc(F)cnc34)CC2C1=O (centres unmarked) [I-N-233, 2-amino-6-fluoro-N-(4-(8-methyl-9-oxohexahydro-1H-pyrazino[1,2-a]pyrazin-2(6H)-yl)pyridin-3-yl)pyrazolo[1,5-a]pyrimidine-3-carboxamide] | ++ (Compounds with a Cisplatin sensitization value >0.02 μM but <0.2 μM are marked with “++.”) |
| CN(C)C(=O)C1CN(c2ccncc2NC(=O)c2c(N)nn3cc(F)cnc23)CCO1 (centres unmarked) [I-N-234, 4-(3-(2-amino-6-fluoropyrazolo[1,5-a]pyrimidine-3-carboxamido)pyridin-4-yl)-N,N-dimethylmorpholine-2-carboxamide] | + (Compounds with a Cisplatin sensitization value >0.2 μM but <5 μM are marked with “+.”) |
| CN1C(=O)CCC12CCN(c1ccncc1NC(=O)c1c(N)nn3cc(F)cnc13)CC2 [I-N-235, 2-amino-6-fluoro-N-(4-(1-methyl-2-oxo-1,8-diazaspiro[4.5]decan-8-yl)pyridin-3-yl)pyrazolo[1,5-a]pyrimidine-3-carboxamide] | ++ (Compounds with a Cisplatin sensitization value >0.02 μM but <0.2 μM are marked with “++.”) |
| CN1CC2(CCN(c3ccncc3NC(=O)c3c(N)nn4cc(F)cnc34)CC2)CC1=O [I-N-236, 2-amino-6-fluoro-N-(4-(2-methyl-3-oxo-2,8-diazaspiro[4.5]decan-8-yl)pyridin-3-yl)pyrazolo[1,5-a]pyrimidine-3-carboxamide] | +++ (Compounds with a Cisplatin sensitization value of <0.02 μM are marked with “+++.”) |
| Cc1cncc(NC(=O)c2c(N)nn3cc(F)cnc23)c1-n1nccc1C [I-N-237] | + (Compounds with a Cisplatin sensitization value >0.2 μM but <5 μM are marked with “+.”) |
| Nc1nn2cc(F)cnc2c1C(=O)Nc1cnccc1N1CCN2C(=O)OCC2C1 (centres unmarked) [I-N-238, 2-amino-6-fluoro-N-(4-(3-oxotetrahydro-1H-oxazolo[3,4-a]pyrazin-7(3H)-yl)pyridin-3-yl)pyrazolo[1,5-a]pyrimidine-3-carboxamide] | ++ (Compounds with a Cisplatin sensitization value >0.02 μM but <0.2 μM are marked with “++.”) |
| Nc1nn2cc(F)cnc2c1C(=O)Nc1cncc(F)c1N1CCC2(CC1)COC2 [I-N-239, 2-amino-6-fluoro-N-(5-fluoro-4-(2-oxa-7-azaspiro[3.5]nonan-7-yl)pyridin-3-yl)pyrazolo[1,5-a]pyrimidine-3-carboxamide] | +++ (Compounds with a Cisplatin sensitization value of <0.02 μM are marked with “+++.”) |
| CN1CCN2CCN(c3c(F)cncc3NC(=O)c3c(N)nn4cc(F)cnc34)CC2C1=O (centres unmarked) [I-N-240, 2-amino-6-fluoro-N-(5-fluoro-4-(8-methyl-9-oxohexahydro-1H-pyrazino[1,2-a]pyrazin-2(6H)-yl)pyridin-3-yl)pyrazolo[1,5-a]pyrimidine-3-carboxamide] | ++ (Compounds with a Cisplatin sensitization value >0.02 μM but <0.2 μM are marked with “++.”) |
| Nc1nn2cc(F)cnc2c1C(=O)Nc1cnccc1N1CCC(c2ncon2)CC1 [I-N-241, N-(4-(4-(1,2,4-oxadiazol-3-yl)piperidin-1-yl)pyridin-3-yl)-2-amino-6-fluoropyrazolo[1,5-a]pyrimidine-3-carboxamide] | +++ (Compounds with a Cisplatin sensitization value of <0.02 μM are marked with “+++.”) |
| Cc1ncnn1-c1c(F)cncc1NC(=O)c1c(N)nn2cc(F)cnc12 [I-N-242, 2-amino-6-fluoro-N-(5-fluoro-4-(5-methyl-1H-1,2,4-triazol-1-yl)pyridin-3-yl)pyrazolo[1,5-a]pyrimidine-3-carboxamide] | + (Compounds with a Cisplatin sensitization value >0.2 μM but <5 μM are marked with “+.”) |
| CC1(S(C)(=O)=O)CCN(c2ccncc2NC(=O)c2c(N)nn3cc(F)cnc23)CC1 [I-N-243, 2-amino-6-fluoro-N-(4-(4-methyl-4-(methylsulfonyl)piperidin-1-yl)pyridin-3-yl)pyrazolo[1,5-a]pyrimidine-3-carboxamide] | +++ (Compounds with a Cisplatin sensitization value of <0.02 μM are marked with “+++.”) |
| Nc1nn2cc(F)cnc2c1C(=O)Nc1cnccc1N1CCN2C(=O)CCCC2C1 (centres unmarked) [I-N-244, 2-amino-6-fluoro-N-(4-(6-oxohexahydro-1H-pyrido[1,2-a]pyrazin-2(6H)-yl)pyridin-3-yl)pyrazolo[1,5-a]pyrimidine-3-carboxamide] | +++ (Compounds with a Cisplatin sensitization value of <0.02 μM are marked with “+++.”) |
| CC(C)N1CCN2CCN(c3ccncc3NC(=O)c3c(N)nn4cc(F)cnc34)CC2C1=O (centres unmarked) [I-N-245, 2-amino-6-fluoro-N-(4-(8-isopropyl-9-oxohexahydro-1H-pyrazino[1,2-a]pyrazin-2(6H)-yl)pyridin-3-yl)pyrazolo[1,5-a]pyrimidine-3-carboxamide] | ++ (Compounds with a Cisplatin sensitization value >0.02 μM but <0.2 μM are marked with “++.”) |
| Nc1nn2cc(F)cnc2c1C(=O)Nc1cncc(F)c1N1CCCC1 [I-N-246, 2-amino-6-fluoro-N-(5-fluoro-4-(pyrrolidin-1-yl)pyridin-3-yl)pyrazolo[1,5-a]pyrimidine-3-carboxamide] | ++ (Compounds with a Cisplatin sensitization value >0.02 μM but <0.2 μM are marked with “++.”) |
| Nc1nn2cc(F)cnc2c1C(=O)Nc1cnccc1N1CCN2[C@@H](CCS2(=O)=O)C1 [I-N-247, (S)-2-amino-N-(4-(1,1-dioxidotetrahydro-2H-isothiazolo[2,3-a]pyrazin-5(3H)-yl)pyridin-3-yl)-6-fluoropyrazolo[1,5-a]pyrimidine-3-carboxamide] | +++ (Compounds with a Cisplatin sensitization value of <0.02 μM are marked with “+++.”) |
| Nc1nn2cc(F)cnc2c1C(=O)Nc1cncc(F)c1N1CCN2C(=O)OC[C@@H]2C1 [I-N-248, (S)-2-amino-6-fluoro-N-(5-fluoro-4-(3-oxotetrahydro-1H-oxazolo[3,4-a]pyrazin-7(3H)-yl)pyridin-3-yl)pyrazolo[1,5-a]pyrimidine-3-carboxamide] | ++ (Compounds with a Cisplatin sensitization value >0.02 μM but <0.2 μM are marked with “++.”) |
| Nc1nn2cc(F)cnc2c1C(=O)Nc1cnccc1N1CCN(C(=O)C2COC2)CC1 [I-N-249] | +++ (Compounds with a Cisplatin sensitization value of <0.02 μM are marked with “+++.”) |
| Nc1nn2cc(F)cnc2c1C(=O)Nc1cncc(F)c1N1CCS(=O)(=O)CC1 [I-N-250, 2-amino-N-(4-(1,1-dioxidothiomorpholino)-5-fluoropyridin-3-yl)-6-fluoropyrazolo[1,5-a]pyrimidine-3-carboxamide] | ++ (Compounds with a Cisplatin sensitization value >0.02 μM but <0.2 μM are marked with “++.”) |
| CC(=O)N1CC2(CCN(c3ccncc3NC(=O)c3c(N)nn4cc(F)cnc34)CC2)C1 [I-N-251, N-(4-(2-acetyl-2,7-diazaspiro[3.5]nonan-7-yl)pyridin-3-yl)-2-amino-6-fluoropyrazolo[1,5-a]pyrimidine-3-carboxamide] | +++ (Compounds with a Cisplatin sensitization value of <0.02 μM are marked with “+++.”) |
| CC1(C)CN(c2ccncc2NC(=O)c2c(N)nn3cc(F)cnc23)CCS1(=O)=O [I-N-252, 2-amino-N-(4-(2,2-dimethyl-1,1-dioxidothiomorpholino)pyridin-3-yl)-6-fluoropyrazolo[1,5-a]pyrimidine-3-carboxamide] | +++ (Compounds with a Cisplatin sensitization value of <0.02 μM are marked with “+++.”) |
